≈ marks a conversion by molar mass, not a printed value.
Columns and labels:
Assay type in all cases: functional
[1] = system: Mycobacterium tuberculosis; assay: Antimicrobial activity against Mycobacterium tuberculosis H37Rv by microbroth dilution method
[2] = system: Escherichia coli; assay: Antimicrobial activity against Escherichia coli K-12 by microbroth dilution method
[3] = system: Escherichia coli; assay: Antimicrobial activity against tolC-deficient Escherichia coli by microbroth dilution method
[4] = system: Enterococcus faecalis; assay: Antimicrobial activity against Enterococcus faecalis ATCC 33186 by microbroth dilution method
[5] = system: Pseudomonas aeruginosa; assay: Antimicrobial activity against Pseudomonas aeruginosa PAO1 at >200 ug/ml by microbroth dilution method
[6] = system: Staphylococcus aureus; assay: Antimicrobial activity against methicillin-sensitive Staphylococcus aureus ATCC 29213 by microbroth dilution method
[7] = system: Staphylococcus aureus; assay: Antimicrobial activity against methicillin-resistant Staphylococcus aureus NRS 70 by microbroth dilution method
[8] = system: Klebsiella pneumoniae; assay: Antimicrobial activity against Klebsiella pneumoniae ATCC 33495 at >200 ug/ml by microbroth dilution method

SMILES | MIC [1] [µg/mL] | MIC [2] [µg/mL] | MIC [3] [µg/mL] | MIC [4] [µg/mL] | MIC [5] [µg/mL] | MIC [6] [µg/mL] | MIC [7] [µg/mL] | MIC [8] [µg/mL]
C=CCOc1ccccc1/C=C/C(=O)c1ccc(O)cc1 | 200 (≈ 713 µM) | > 200 | 6.25 (≈ 22.3 µM) | 100 (≈ 357 µM) | > 200 | 12.5 (≈ 44.6 µM) | 6.25 (≈ 22.3 µM) | > 200
C=CCOc1ccccc1/C=C/C(=O)c1c(O)cc(O)cc1O | > 200 | > 200 | 12.5 (≈ 40 µM) | 50 (≈ 160 µM) | > 200 | > 200 | 25 (≈ 80 µM) | > 200
CCCC1CC(O)c2ccc(O)cc2O1 (configuration not stated) | 12.5 (≈ 60 µM) | > 200 | 50 (≈ 240 µM) | 100 (≈ 480 µM) | > 200 | 50 (≈ 240 µM) | 50 (≈ 240 µM) | > 200
O=C1CC(C2CCCC2)Oc2cc(O)cc(O)c21 (configuration not stated) | 200 (≈ 806 µM) | > 200 | 6.25 (≈ 25.2 µM) | 50 (≈ 201 µM) | > 200 | 100 (≈ 403 µM) | 50 (≈ 201 µM) | > 200
CCCCCCCCCC1CC(=O)c2ccc(O)cc2O1 (configuration not stated) | > 200 | > 200 | > 200 | 200 (≈ 689 µM) | > 200 | > 200 | > 200 | > 200
CC1(C)C2CC=C(C3CC(=O)c4ccc(O)cc4O3)C1C2 (configuration not stated) | > 200 | > 200 | 6.25 (≈ 22 µM) | > 200 | > 200 | 200 (≈ 703 µM) | 200 (≈ 703 µM) | > 200
CCCCCCC1CC(O)c2ccc(O)cc2O1 (configuration not stated) | 50 (≈ 200 µM) | > 200 | 3.13 (≈ 12.5 µM) | 50 (≈ 200 µM) | > 200 | > 200 | 200 (≈ 799 µM) | > 200
COCOc1cc(OCOC)c2c(c1)OC(CC(C)CCC=C(C)C)CC2=O (configuration not stated) | > 200 | > 200 | > 200 | > 200 | > 200 | > 200 | > 200 | > 200
COCOc1ccc(C(=O)/C=C/C2=CCC3CC2C3(C)C)c(O)c1 (configuration not stated) | 100 (≈ 304 µM) | > 200 | 25 (≈ 76.1 µM) | > 200 | > 200 | > 200 | > 200 | > 200
C=CCOc1ccccc1C1CC(=O)c2ccc(O)cc2O1 (configuration not stated) | 100 (≈ 337 µM) | > 200 | 12.5 (≈ 42.2 µM) | 50 (≈ 169 µM) | > 200 | 25 (≈ 84.4 µM) | 25 (≈ 84.4 µM) | > 200
O=C1CC2(CCCCC2)Oc2cc(O)ccc21 | 100 (≈ 431 µM) | > 200 | 50 (≈ 215 µM) | > 200 | > 200 | 200 (≈ 861 µM) | 200 (≈ 861 µM) | > 200
CC1(C)S[C@@H]2[C@H](NC(=O)[C@H](N)c3ccccc3)C(=O)N2[C@H]1C(=O)O [AMPICILLIN] | – | 3.13 (≈ 8.96 µM) | 1.56 (≈ 4.46 µM) | 0.78 (≈ 2.23 µM) | > 200 | 1.56 (≈ 4.46 µM) | 12.5 (≈ 35.8 µM) | > 200
CCCCCCCC1CC(=O)c2c(OCOC)cc(OCOC)cc2O1 (configuration not stated) | 50 (≈ 136 µM) | > 200 | 12.5 (≈ 34.1 µM) | > 200 | > 200 | > 200 | > 200 | > 200
CCCCCCC1CC(=O)c2c(OCOC)cc(OCOC)cc2O1 (configuration not stated) | 50 (≈ 142 µM) | > 200 | 6.25 (≈ 17.7 µM) | > 200 | > 200 | > 200 | > 200 | > 200
C=CCOc1cc(O)cc(O)c1C(=O)[C@@H](C)CC | – | – | 3.13 (≈ 12.5 µM) | 12.5 (≈ 49.9 µM) | > 200 | 12.5 (≈ 49.9 µM) | 12.5 (≈ 49.9 µM) | > 200
O=C1CC(c2ccc(N3CCCCC3)cc2)Oc2cc(O)ccc21 (configuration not stated) | > 200 | > 200 | 12.5 (≈ 38.7 µM) | 200 (≈ 618 µM) | > 200 | > 200 | > 200 | > 200
CC1(C)C2CC=C(C3CC(=O)c4c(O)cc(O)cc4O3)C1C2 (configuration not stated) | 200 (≈ 666 µM) | > 200 | 3.13 (≈ 10.4 µM) | 12.5 (≈ 41.6 µM) | > 200 | 12.5 (≈ 41.6 µM) | 6.25 (≈ 20.8 µM) | > 200
CCCCCCCC1CC(=O)c2ccc(O)cc2O1 (configuration not stated) | 50 (≈ 191 µM) | > 200 | 1.56 (≈ 5.95 µM) | > 200 | > 200 | > 200 | > 200 | > 200
CCCC1CC(=O)c2ccc(O)cc2O1 (configuration not stated) | 200 (≈ 970 µM) | > 200 | 50 (≈ 242 µM) | > 200 | > 200 | 200 (≈ 970 µM) | > 200 | > 200
NC[C@H]1O[C@H](O[C@H]2[C@H](O)[C@@H](O[C@H]3O[C@H](CO)[C@@H](O)[C@H](N)[C@H]3O)[C@H](N)C[C@@H]2N)[C@H](O)[C@@H](O)[C@@H]1O [KANAMYCIN] | – | 3.13 (≈ 6.46 µM) | < 0.2 | 25 (≈ 51.6 µM) | > 200 | 1.56 (≈ 3.22 µM) | 50 (≈ 103 µM) | > 200
CC(C)=CCCC(C)CC1CC(=O)c2cc(O)ccc2O1 (configuration not stated) | 200 (≈ 694 µM) | > 200 | 3.13 (≈ 10.9 µM) | 6.25 (≈ 21.7 µM) | > 200 | 6.25 (≈ 21.7 µM) | 12.5 (≈ 43.3 µM) | > 200
CC1(C)C2CC=C(/C=C/C(=O)c3c(O)cc(O)cc3O)C1C2 (configuration not stated) | > 200 | > 200 | 6.25 (≈ 20.8 µM) | 25 (≈ 83.2 µM) | > 200 | > 200 | 200 (≈ 666 µM) | > 200
O=C1CC(CCc2ccccc2)Oc2cc(O)ccc21 (configuration not stated) | 100 (≈ 373 µM) | > 200 | 12.5 (≈ 46.6 µM) | > 200 | > 200 | 50 (≈ 186 µM) | 50 (≈ 186 µM) | > 200
COCOc1ccc2c(c1)OC(C1=CCC3CC1C3(C)C)CC2=O (configuration not stated) | 100 (≈ 304 µM) | > 200 | 6.25 (≈ 19 µM) | > 200 | > 200 | > 200 | > 200 | > 200
O=C(N[C@H](CO)[C@H](O)c1ccc([N+](=O)[O-])cc1)C(Cl)Cl [CHLORAMPHENICOL] | – | 3.13 (≈ 9.69 µM) | 0.39 (≈ 1.21 µM) | 0.78 (≈ 2.41 µM) | > 200 | 3.13 (≈ 9.69 µM) | 1.56 (≈ 4.83 µM) | > 200
CC(C)=CCCC(C)CC1CC(=O)c2c(O)cccc2O1 (configuration not stated) | > 200 | > 200 | > 200 | > 200 | > 200 | > 200 | > 200 | > 200
NNC(=O)c1ccncc1 [ISONIAZID] | 0.03 (≈ 0.219 µM) | – | – | – | – | – | – | –
CCC(C)C(=O)c1c(O)cc(O)cc1OC/C=C(\C)CCC=C(C)C (racemic) | 200 (≈ 577 µM) | – | > 200 | – | > 200 | – | 3.13 (≈ 9.03 µM) | > 200
CCCCCCC1CC(=O)c2c(O)cc(O)cc2O1 (configuration not stated) | 50 (≈ 189 µM) | > 200 | 3.13 (≈ 11.8 µM) | 100 (≈ 378 µM) | > 200 | – | 6.25 (≈ 23.6 µM) | > 200
C=CCOc1cc(O)cc(O)c1C(=O)C(C)CC (racemic) | 100 (≈ 400 µM) | > 200 | 3.13 (≈ 12.5 µM) | – | > 200 | – | 6.25 (≈ 25 µM) | > 200

Source: ChEMBL document CHEMBL3351381, “Synthesis, structure-activity relationship studies, and antibacterial evaluation of 4-chromanones and chalcones, as well as olympicin A and derivatives” (J Med Chem, 2014)
